Reference: ChEMBL document CHEMBL1129927, “Further evidence for a dopamine reuptake pharmacophore. The effect of N-methylation on Threo-methylphenidate and its analogs” (Bioorg Med Chem Lett, 1997)

Legend:
[1] = Hill coefficient was determined
[2] = target: Sodium-dependent dopamine transporter (Rattus norvegicus, UniProt P23977); test: The compound was tested for its affinity at the rat striatal dopamine transporter by the displacement of [3H]WIN-35428
[3] = Ratio of inhibitory concentration of compound 5d to 6d

Chain of Sodium-dependent dopamine transporter (P23977 whole entry): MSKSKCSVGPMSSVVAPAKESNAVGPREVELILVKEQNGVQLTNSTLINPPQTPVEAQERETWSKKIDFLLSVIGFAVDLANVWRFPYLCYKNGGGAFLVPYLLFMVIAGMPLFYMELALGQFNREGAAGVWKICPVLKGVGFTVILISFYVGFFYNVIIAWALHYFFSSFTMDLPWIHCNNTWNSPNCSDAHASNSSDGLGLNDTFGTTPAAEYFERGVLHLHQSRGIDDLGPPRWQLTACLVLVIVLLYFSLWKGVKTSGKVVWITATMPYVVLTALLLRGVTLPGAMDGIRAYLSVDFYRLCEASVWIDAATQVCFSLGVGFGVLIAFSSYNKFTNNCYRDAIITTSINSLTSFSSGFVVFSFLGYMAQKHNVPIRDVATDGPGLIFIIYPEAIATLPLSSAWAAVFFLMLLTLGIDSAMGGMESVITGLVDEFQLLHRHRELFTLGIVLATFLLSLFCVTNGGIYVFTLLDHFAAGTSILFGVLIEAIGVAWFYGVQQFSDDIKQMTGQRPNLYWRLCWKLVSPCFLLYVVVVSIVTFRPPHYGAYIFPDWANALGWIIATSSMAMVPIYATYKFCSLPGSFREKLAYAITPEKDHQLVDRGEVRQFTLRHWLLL

SMILES	Hill coefficient [1]	IC50 [2]	Ratio [3]
COC(=O)[C@H](c1ccccc1)[C@H]1CCCCN1	0.9		
COC(=O)[C@H](c1cccc(C)c1)[C@H]1CCCCN1	1.01	21.4 nM	
COC(=O)[C@H](c1cccc(Cl)c1)[C@H]1CCCCN1C	0.96	161 nM	
COC(=O)[C@H](c1cccc(C)c1)[C@H]1CCCCN1C	1	108 nM	
COC(=O)[C@H](c1ccc(C)cc1)[C@H]1CCCCN1C	1.03	139 nM	
COC(=O)[C@H](c1ccc(O)cc1)[C@H]1CCCCN1C	1.06	1220 nM	
COC(=O)[C@H](c1cccc(Cl)c1)C1CCCCN1 (stereo not given in full)	0.95	5.1 nM	
COC(=O)[C@H](c1ccccc1)[C@H]1CCCCN1C	1	500 nM	
COC(=O)[C@H](c1ccc(O)cc1)[C@H]1CCCCN1	1.07	98 nM	
COC(=O)[C@H](c1ccc(C)cc1)C1CCCCN1 (stereo not given in full)	1.05	33 nM	4.2
